According to the Kinase Knowledgebase extract (Sharma et al. 2016):
≈ marks a conversion by molar mass, not a printed value. Each block holds one compound with its values, some of them ahead of it.

Legend:
MAPK14 [1] = target: MAPK14 (UniProt Q16539)
EGFR (human) [2] = target: EGFR (human) (UniProt P00533); settings: a431
MAPK14 [3] = target: MAPK14 (UniProt Q16539); assay: Inhibition of MAPK14 Kinase Activity
EGFR [4] = target: EGFR (UniProt P00533)
CDK2 [5] = target: CDK2 (UniProt P24941); assay: Enzyme Assay
MAPK14 [6] = target: MAPK14 (UniProt Q16539); assay: Inhibition of MAPK14 Kinase Activity (Binding Assay)
MAPK14 [7] = target: MAPK14 (UniProt Q16539); assay: Inhibition of MAPK14 Kinase Activity (Spectrophometric Assay)
CDK2 (human) [8] = target: CDK2 (human) (UniProt P24941); assay: Enzyme Assay
CDK2 [9] = target: CDK2 (UniProt P24941); assay: Enzyme Assay; remark: listed apart in the source
CDK2 (human) [10] = target: CDK2 (human) (UniProt P24941); assay: Enzyme Assay; remark: listed apart in the source
MAPK14 (Drosophila) = assay: p38 Kinase Inhibition; settings: sf9
MAPK14 (human) = MAPK14 (human) (UniProt Q16539); assay: p38-alpha Kinase Inhibition; settings: for activity: concentration not given here
ROCK2 (rat) = ROCK2 (rat) (UniProt Q62868); assay: ROCK-II Kinase Inhibition; settings: concentration not given here
EGFR [11] = target: EGFR (UniProt P00533); remark: listed apart in the source
ROCK2 = ROCK2 (UniProt O75116); assay: Inhibition of ROCK-II Kinase Activity; settings: concentration not given here
EGFR [12] = target: EGFR (UniProt P00533); settings: concentration not given here
EGFR (mouse) [13] = target: EGFR (mouse) (UniProt P00533); settings: Swiss 3T3
EGFR [14] = target: EGFR (UniProt P00533); remark: listed apart in the source
EGFR (mouse) [15] = target: EGFR (mouse) (UniProt P00533); settings: balb/mk
EGFR (human) [16] = target: EGFR (human) (UniProt P00533); settings: a431; remark: listed apart in the source
MAPK14 [17] = target: MAPK14 (UniProt Q16539); assay: MAPK Kinase Inhibition
MAPK14 [18] = target: MAPK14 (UniProt Q16539); assay: Cascade Assay for Inhibitors of the MAP Kinase Pathway
EGFR (human) [19] = target: EGFR (human) (UniProt P00533)
CDK2 [20] = target: CDK2 (UniProt P24941); assay: Enzyme Assay; remark: listed apart in the source
EGFR (human) [21] = target: EGFR (human) (UniProt P00533); remark: listed apart in the source
MAPK14 [22] = target: MAPK14 (UniProt Q16539); assay: CSBP binding - Inhibition of RBL-1 5 Lipoxygenase Enzyme Assay
MAPK14 [23] = target: MAPK14 (UniProt Q16539); assay: CSBP binding - Inhibition of Prostaglandin H Synthase Type-1 Enzyme Assay
EGFR (human) [24] = target: EGFR (human) (UniProt P00533); settings: hn5
EGFR [25] = target: EGFR (UniProt P00533); remark: listed apart in the source
EGFR (murine) = EGFR (murine) (UniProt P00533); settings: nih3t3
EGFR (human) [26] = target: EGFR (human) (UniProt P00533); remark: listed apart in the source
EGFR (human) [27] = target: EGFR (human) (UniProt P00533); settings: a431; remark: listed apart in the source
EGFR [28] = target: EGFR (UniProt P00533); assay: Inhibition of EGFr Enzyme
EGFR [29] = target: EGFR (UniProt P00533); remark: listed apart in the source
EGFR [30] = target: EGFR (UniProt P00533); settings: balb/c 3t3

EGFR (human), sequence (P00533 whole entry, looked up): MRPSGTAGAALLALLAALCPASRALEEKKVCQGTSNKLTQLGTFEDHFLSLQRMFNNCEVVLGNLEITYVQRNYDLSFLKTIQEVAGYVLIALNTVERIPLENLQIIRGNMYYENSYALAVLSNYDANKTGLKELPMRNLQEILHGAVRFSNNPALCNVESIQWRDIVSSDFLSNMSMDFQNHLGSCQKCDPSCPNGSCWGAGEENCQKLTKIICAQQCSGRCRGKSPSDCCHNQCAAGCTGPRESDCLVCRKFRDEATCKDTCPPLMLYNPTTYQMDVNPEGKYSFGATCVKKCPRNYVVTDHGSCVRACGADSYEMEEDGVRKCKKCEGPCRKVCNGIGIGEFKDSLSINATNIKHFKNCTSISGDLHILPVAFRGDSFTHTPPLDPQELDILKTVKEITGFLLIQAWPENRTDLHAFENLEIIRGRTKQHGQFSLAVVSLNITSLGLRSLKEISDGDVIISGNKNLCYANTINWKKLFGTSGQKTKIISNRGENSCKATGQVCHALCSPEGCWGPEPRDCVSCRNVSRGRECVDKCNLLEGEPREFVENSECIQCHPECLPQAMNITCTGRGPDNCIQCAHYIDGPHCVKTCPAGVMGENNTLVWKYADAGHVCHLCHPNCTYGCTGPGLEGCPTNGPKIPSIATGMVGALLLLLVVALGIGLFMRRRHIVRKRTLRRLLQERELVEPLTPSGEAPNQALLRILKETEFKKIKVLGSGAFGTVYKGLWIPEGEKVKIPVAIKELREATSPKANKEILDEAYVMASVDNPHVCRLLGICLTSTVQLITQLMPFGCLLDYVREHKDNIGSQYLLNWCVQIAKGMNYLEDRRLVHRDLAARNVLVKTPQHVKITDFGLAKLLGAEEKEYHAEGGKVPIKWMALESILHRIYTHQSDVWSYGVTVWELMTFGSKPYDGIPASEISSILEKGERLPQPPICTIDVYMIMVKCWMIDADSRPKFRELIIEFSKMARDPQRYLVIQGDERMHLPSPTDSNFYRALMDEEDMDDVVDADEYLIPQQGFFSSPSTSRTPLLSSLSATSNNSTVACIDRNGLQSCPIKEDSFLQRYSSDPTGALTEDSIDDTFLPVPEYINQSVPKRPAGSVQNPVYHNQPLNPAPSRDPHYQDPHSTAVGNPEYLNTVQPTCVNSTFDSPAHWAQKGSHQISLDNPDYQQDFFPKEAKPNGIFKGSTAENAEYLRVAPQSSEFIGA
EGFR, sequence (P00533 whole entry, looked up): as above
MAPK14, sequence (Q16539 whole entry, looked up): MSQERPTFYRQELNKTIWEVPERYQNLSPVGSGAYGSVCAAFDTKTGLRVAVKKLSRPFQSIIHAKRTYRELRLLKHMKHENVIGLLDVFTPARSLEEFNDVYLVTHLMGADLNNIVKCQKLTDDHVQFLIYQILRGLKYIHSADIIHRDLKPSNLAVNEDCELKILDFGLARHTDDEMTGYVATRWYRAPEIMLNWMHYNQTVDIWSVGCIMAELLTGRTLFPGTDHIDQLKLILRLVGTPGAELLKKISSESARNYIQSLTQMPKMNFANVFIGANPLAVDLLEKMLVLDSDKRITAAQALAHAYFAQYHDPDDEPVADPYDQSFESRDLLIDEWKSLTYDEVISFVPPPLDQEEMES
MAPK14 (human), sequence (Q16539 whole entry, looked up): as above
ROCK2 (rat), sequence (Q62868 whole entry, looked up): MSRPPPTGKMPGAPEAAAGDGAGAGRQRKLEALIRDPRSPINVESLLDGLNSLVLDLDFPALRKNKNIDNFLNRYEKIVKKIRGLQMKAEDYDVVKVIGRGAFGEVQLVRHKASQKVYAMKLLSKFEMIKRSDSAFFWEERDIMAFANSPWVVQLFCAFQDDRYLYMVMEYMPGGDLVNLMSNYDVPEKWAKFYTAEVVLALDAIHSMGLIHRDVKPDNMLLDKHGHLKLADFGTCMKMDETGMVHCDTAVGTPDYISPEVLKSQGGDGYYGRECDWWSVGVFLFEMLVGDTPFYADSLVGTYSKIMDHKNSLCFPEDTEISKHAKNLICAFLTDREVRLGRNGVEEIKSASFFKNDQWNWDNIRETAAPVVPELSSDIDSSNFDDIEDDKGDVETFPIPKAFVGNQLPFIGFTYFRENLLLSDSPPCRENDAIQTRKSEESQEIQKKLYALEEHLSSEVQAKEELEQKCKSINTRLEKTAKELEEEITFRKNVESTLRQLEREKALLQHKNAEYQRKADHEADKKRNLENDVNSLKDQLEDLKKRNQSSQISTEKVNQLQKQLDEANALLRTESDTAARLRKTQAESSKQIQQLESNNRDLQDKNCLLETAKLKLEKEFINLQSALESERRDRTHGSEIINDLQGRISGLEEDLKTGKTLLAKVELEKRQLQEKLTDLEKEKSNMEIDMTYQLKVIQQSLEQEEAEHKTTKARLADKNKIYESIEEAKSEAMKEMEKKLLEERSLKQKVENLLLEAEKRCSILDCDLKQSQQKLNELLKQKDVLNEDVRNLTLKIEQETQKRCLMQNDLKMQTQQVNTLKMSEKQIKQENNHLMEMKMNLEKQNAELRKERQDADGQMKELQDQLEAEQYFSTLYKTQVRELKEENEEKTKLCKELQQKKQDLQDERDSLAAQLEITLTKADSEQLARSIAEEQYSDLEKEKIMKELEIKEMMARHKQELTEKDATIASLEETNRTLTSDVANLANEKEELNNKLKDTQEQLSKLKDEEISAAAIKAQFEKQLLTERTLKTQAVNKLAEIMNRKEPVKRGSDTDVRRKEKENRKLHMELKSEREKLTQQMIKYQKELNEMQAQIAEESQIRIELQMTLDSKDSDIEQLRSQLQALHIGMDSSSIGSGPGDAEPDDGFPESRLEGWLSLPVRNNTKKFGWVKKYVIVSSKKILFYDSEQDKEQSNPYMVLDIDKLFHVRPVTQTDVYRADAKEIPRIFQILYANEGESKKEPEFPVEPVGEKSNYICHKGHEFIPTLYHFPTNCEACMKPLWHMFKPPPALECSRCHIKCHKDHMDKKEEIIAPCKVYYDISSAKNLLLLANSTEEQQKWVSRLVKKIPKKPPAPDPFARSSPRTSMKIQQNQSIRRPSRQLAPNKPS

- IC50 (MAPK14 [3]): > 10 µM
- IC50 (EGFR [4]): > 10 µM
- IC50 (CDK2 [5]): 1700 nM
Compound: CCS(=O)(=O)c1ccc(OC)c(Nc2ncc(-c3cccc(-c4ccccn4)c3)o2)c1

- IC50 (MAPK14 [6]): 2150 nM
- IC50 (MAPK14 [7]): 953 nM
Compound: CC12CC(C(=O)O)CC(C)(C1)C(=O)N(Cc1cccc(-n3nc(C(C)(C)C)cc3NC(=O)Nc3cccc4ccccc34)c1)C2=O (stereo unspecified)

- inhibition (EGFR [12]): -43%
Compound: COc1ccc(C#CC(C)(C)N)cc1-c1n[nH]c2nc(Nc3ccc(F)cc3F)ccc12

- IC50 (EGFR [14]): 110 nM
Compound: CN1CCC(Oc2cccc3ncnc(Nc4ccc(OCc5ccccn5)c(Cl)c4)c23)CC1

- IC50 (MAPK14 [18]): > 3000 nM
Compound: CN(Cc1cccnc1)S(=O)(=O)c1cc(C(=O)O)c(Nc2ccc(I)cc2Cl)c(F)c1F

- IC50 (EGFR (human) [19]): 1000 nM
Compound: N#Cc1cnc2cc3c(cc2c1Nc1ccc(F)c(Cl)c1)N(C(=O)/C=C/CCl)CCO3

- IC50 (MAPK14 (Drosophila)): 2 nM
Compound: Cc1cc(F)ccc1-c1nc(N(C(N)=O)c2c(Cl)cccc2Cl)ccc1CO

- IC50 (EGFR [14]): 280 nM
Compound: CN1CCC(Oc2cccc3ncnc(Nc4ccc(OCc5cscn5)c(Cl)c4)c23)CC1

- Ki (CDK2 [20]): 220 nM
- Ki (CDK2 [5]): 34 nM
Compound: CC(=O)NCc1ccc(Nc2nccc(-c3sc(=O)n(C)c3C)n2)cc1

- IC50 (EGFR (human) [21]): > 100 µM
Compound: Clc1cccc(Nc2cncc(-c3cncc(NCCCN4CCCCC4)c3)n2)c1

- IC50 (EGFR (human) [24]): 45 nM
Compound: C#Cc1cccc(Nc2ncnc3ccc(OCCCCNCCS(C)(=O)=O)cc23)c1

- Ki (CDK2 [20]): 42 nM
- Ki (CDK2 [5]): 39 nM
Compound: Cc1c(-c2ccnc(Nc3cccc(CCNS(C)(=O)=O)c3)n2)sc(=O)n1C

- IC50 (MAPK14 [18]): > 3000 nM
Compound: COc1ccc(CN(Cc2ccc(OC)cc2)S(=O)(=O)c2cc(C(=O)NOCC3CC3)c(Nc3ccc(I)cc3Cl)c(F)c2F)cc1

- IC50 (EGFR [25]): 2.2 to 200 µM
Compound: COC1=CC(=O)C(Nc2ncnc3cc(OCC4CCN(C)CC4)c(OC)cc23)=CC1=O

- IC50 (EGFR (human) [26]): 1.7 µg/mL (≈ 2.19 µM)
Compound: CCOc1cc2ncc(C#N)c(Nc3ccc(F)c(Cl)c3)c2cc1NC(=O)CC(CN(C)C)SCC(NC(=O)CC[C@@H](N)C(=O)O)C(=O)NCC(=O)O (stereo partly specified)

- IC50 (EGFR (human) [27]): 30 nM
Compound: N#Cc1cnc2ccc(NCc3c[nH]cn3)cc2c1Nc1ccc(F)c(Cl)c1

- IC50 (EGFR [28]): 0.13 nM
- IC50 (EGFR [29]): 16 nM
Compound: CNc1cc2ncnc(Nc3cccc(Br)c3)c2cn1

- IC50 (MAPK14 [3]): > 10 µM
- IC50 (EGFR [4]): > 10 µM
Compound: CCS(=O)(=O)c1ccc(OC)c(Nc2ncc(-c3cccc(-c4ccccc4F)c3)o2)c1

The remaining lines, values behind:

Compound: COCC(=O)NCCn1cnc(-c2ccc(F)cc2)c1-c1ccnc(OCCC2CCCCC2)n1
- IC50 (MAPK14 [1]): < 50 µM

Compound: Nc1ccc(NC(=O)Nc2cccc3c2C(=O)c2c-3n[nH]c2-c2ccc(O)cc2)cc1
- GI50 (EGFR (human) [2]): > 10 µM

Compound: O=C1Nc2ccc(Cl)cc2/C1=C1/Nc2ccccc2C1=O
- IC50 (CDK2 [5]): 750 nM
- IC50 (CDK2 (human) [8]): 750 nM
- IC50 (CDK2 [9]): 550 nM
- IC50 (CDK2 (human) [10]): 550 nM

Compound: Cc1ccccc1-c1nc(N(C(N)=O)c2c(Cl)cccc2Cl)ccc1CO
- IC50 (MAPK14 (Drosophila)): 56 nM

Compound: NC(=O)c1ccc(-c2nc(-c3ccc4c(c3)OCCO4)c(-c3ccccn3)[nH]2)cc1
- IC50 (MAPK14 (human)): 12 µM
- activity (MAPK14 (human)): 56%
- activity (ROCK2 (rat)): 96%

Compound: COc1cc(OC)c(/C=C2/C(=O)Nc3ccccc32)c(OC)c1
- activity (MAPK14 (human)): 86%
- activity (ROCK2 (rat)): 96%

Compound: CNC(=O)N1CCN(Cc2ccnc(Nc3ncc(C#N)s3)c2C)CC1
- IC50 (CDK2 [5]): 13700 nM
- IC50 (EGFR [11]): > 19.2 µM

Compound: CN(C)c1nc2c(Br)c(Br)c(Br)c(Br)c2[nH]1
- inhibition (MAPK14 [3]; concentration not given here): 15%
- inhibition (ROCK2): 31%

Compound: Cc1nc2cc3nc(-c4ccccc4)cnc3cc2n1C
- IC50 (EGFR (mouse) [13]): > 30 µM

Compound: Cc1cccc(Nc2ncnc3[nH]c4c(c23)CCCC4)c1
- IC50 (EGFR (mouse) [15]): > 50 µM

Compound: CC(C)(C)c1cc(C=C(C#N)C#N)cc(C(C)(C)C)c1O
- IC50 (EGFR (human) [16]): 100 nM

Compound: Cc1cc(C)c(C)c(-c2cc3cnc(N)nc3nc2NC(=O)NC(C)(C)C)c1C
- IC50 (MAPK14 [17]): > 50 µM

Compound: Cc1cc(F)ccc1-c1nc(N(C(N)=O)c2c(F)cccc2F)ccc1CO
- IC50 (MAPK14 (Drosophila)): 27 nM

Compound: Fc1ccc(-c2nc[nH]c2-c2ccncc2)cc1
- IC50 (MAPK14 [22]): > 100 µM
- IC50 (MAPK14 [23]): > 100 µM

Compound: COc1ccc(OC)c(/C=C2\C(=O)Nc3ccccc32)c1
- IC50 (EGFR (murine)): 11 µM

Compound: COc1cc(OC)cc(-c2cc3cnc(N)nc3nc2NC(=O)NC(C)(C)C)c1
- IC50 (MAPK14 [17]): > 50 µM

Compound: Clc1cccc(Nc2ncnc3c2C2CCCCC2N3)c1 (stereo unspecified)
- IC50 (EGFR [30]): 300 nM
